# US9863966B2 (priority 2012, dated 2018)
# What was measured:
# [1] = test system: monoclonal antibody from hybridoma cell line NM4.3F5.C10.B7.B2.B2.C4; assay type: binding, sheep
# [2] = cited from earlier work
# [3] = cited from earlier work; for plasma elimination half-life: Demerol Prescribing Information datasheet; for half-life: Latta et al., 2002
# [4] = cited from earlier work; remark: listed apart in the source
Structure (SMILES),% Cross Reactivity [1] [%],other results
CCO[C@@H]1O[C@H](C(=O)O)[C@@H](O)[C@H](O)[C@H]1O [Ethyl-Glucuronide],<1,
CCN(C(C)=O)c1cccc(-c2ccnc3c(C#N)cnn23)c1 [Zaleplon],<1,
Cc1ccc(-c2nc3ccc(C)cn3c2CC(=O)N(C)C)cc1 [Zolpidem],<1,
CCC(=O)C(CC(C)N(C)C)(c1ccccc1)c1ccccc1 (stereo not shown) [Methadone],<1,
CCOC(=O)C1(c2ccccc2)CCN(C)CC1 [Meperidine],102.5,"potency compared to morphine (times less potent) ([2]; Latta et al., 2002): 7-10 times; eliminated in the form of normeperidine ([3]; Baselt, 2008): around 17%; excreted unchanged in urine ([3]; Baselt, 2008): About 7%; plasma elimination half-life [3]: 3 to 4 h; half-life [3]: 3 to 6 h; fraction reaching systematic circulation (first-pass metabolism) ([3]; in vivo): around 50%; time of peak plasma concentrations after administration ([3]; intramuscular injection): 1 to 2 h; administered dose excreted in urine ([3]; within 24 hours, Moffat et al., 2003): Approximately 70%; daily dose reported to cause grand mal seizures ([4]; as low as, Latta et al., 2002): ≥ 260 mg; dose reported as causing muscle twitches or tremors ([4]; as low as, Latta et al., 2002): ≥ 46 mg per day"
COc1ccc2c3c1O[C@H]1C(=O)CC[C@@]4(O)[C@@H](C2)N(C)CC[C@]314 [Oxycodone],<1,
COc1ccc2c3c1O[C@H]1[C@@H](O)C=C[C@H]4[C@@H](C2)N(C)CC[C@@]341 [Codeine],<1,
CC(C)=CCN1CCC2(C)c3cc(O)ccc3CC1C2C (stereo not shown) [Pentazocine],<1,
CCCC(C)(COC(N)=O)COC(N)=O [Meprobamate],<1,
O=C(O)[C@H]1O[C@@H](OCC(Cl)(Cl)Cl)[C@H](O)[C@@H](O)[C@@H]1O [Urochloralic Acid],<1,
O=C(O)C(O)C(O)C(=O)O.Oc1ccc2c(c1)[C@@]13CCCC[C@@]1(O)[C@@H](C2)N(CC1CCC1)CC3 [Butorphanol Tartrate],<1,
CCOC(=O)C1(c2ccccc2)CCNCC1 [Normeperidine],100,analgesic effectiveness relative to parent compound ([2]; relative to meperidine): half as effective; plasma elimination half-life [3]: 15 to 20 h; half-life [3]: 14 to 48 h; IC50 (antibody sensitivity) [1]: about 0.5 ng/ml; convulsant activity relative to parent compound ([4]; relative to meperidine): more active as a convulsant; neurotoxic potential relative to parent compound ([4]; relative to meperidine): up to 3 times
NC1(c2ccccc2Cl)CCCCC1=O (stereo not shown) [Norketamine],<1,
CN1CCN(C(=O)OC2c3nccnc3C(=O)N2c2ccc(Cl)cn2)CC1 (stereo not shown) [Zopiclone],<1,
CN1CC[C@]23c4c5ccc(O)c4O[C@H]2C(=O)CC[C@@]3(O)[C@H]1C5 [Oxymorphone],<1,
COc1ccc2c3c1O[C@H]1C(=O)CC[C@H]4[C@@H](C2)N(C)CC[C@]314 [Hydrocodone],<1,
Oc1ccc2c3c1O[C@H]1[C@@H](O)CC[C@@]4(O)[C@@H](C2)N(CC2CCC2)CC[C@]314 [Nalbuphine],<1,
CN1CC[C@]23CCCC[C@H]2[C@H]1Cc1ccc(O)cc13 [Levorphanol],<1,
